{"source": "patent US11427556B2", "about": "“Urea derivatives as inhibitors of ASK1” (Hepagene Therapeutics (HK) Limited, priority 2017, dated 2022)"}
{"biological_target": "T1, Recombinant human ASK1 kinase (Homo sapiens, UniProt Q99683)", "T1 construct": "purchased Invitrogen Inc", "T1 sequence (Q99683 1-1374)": "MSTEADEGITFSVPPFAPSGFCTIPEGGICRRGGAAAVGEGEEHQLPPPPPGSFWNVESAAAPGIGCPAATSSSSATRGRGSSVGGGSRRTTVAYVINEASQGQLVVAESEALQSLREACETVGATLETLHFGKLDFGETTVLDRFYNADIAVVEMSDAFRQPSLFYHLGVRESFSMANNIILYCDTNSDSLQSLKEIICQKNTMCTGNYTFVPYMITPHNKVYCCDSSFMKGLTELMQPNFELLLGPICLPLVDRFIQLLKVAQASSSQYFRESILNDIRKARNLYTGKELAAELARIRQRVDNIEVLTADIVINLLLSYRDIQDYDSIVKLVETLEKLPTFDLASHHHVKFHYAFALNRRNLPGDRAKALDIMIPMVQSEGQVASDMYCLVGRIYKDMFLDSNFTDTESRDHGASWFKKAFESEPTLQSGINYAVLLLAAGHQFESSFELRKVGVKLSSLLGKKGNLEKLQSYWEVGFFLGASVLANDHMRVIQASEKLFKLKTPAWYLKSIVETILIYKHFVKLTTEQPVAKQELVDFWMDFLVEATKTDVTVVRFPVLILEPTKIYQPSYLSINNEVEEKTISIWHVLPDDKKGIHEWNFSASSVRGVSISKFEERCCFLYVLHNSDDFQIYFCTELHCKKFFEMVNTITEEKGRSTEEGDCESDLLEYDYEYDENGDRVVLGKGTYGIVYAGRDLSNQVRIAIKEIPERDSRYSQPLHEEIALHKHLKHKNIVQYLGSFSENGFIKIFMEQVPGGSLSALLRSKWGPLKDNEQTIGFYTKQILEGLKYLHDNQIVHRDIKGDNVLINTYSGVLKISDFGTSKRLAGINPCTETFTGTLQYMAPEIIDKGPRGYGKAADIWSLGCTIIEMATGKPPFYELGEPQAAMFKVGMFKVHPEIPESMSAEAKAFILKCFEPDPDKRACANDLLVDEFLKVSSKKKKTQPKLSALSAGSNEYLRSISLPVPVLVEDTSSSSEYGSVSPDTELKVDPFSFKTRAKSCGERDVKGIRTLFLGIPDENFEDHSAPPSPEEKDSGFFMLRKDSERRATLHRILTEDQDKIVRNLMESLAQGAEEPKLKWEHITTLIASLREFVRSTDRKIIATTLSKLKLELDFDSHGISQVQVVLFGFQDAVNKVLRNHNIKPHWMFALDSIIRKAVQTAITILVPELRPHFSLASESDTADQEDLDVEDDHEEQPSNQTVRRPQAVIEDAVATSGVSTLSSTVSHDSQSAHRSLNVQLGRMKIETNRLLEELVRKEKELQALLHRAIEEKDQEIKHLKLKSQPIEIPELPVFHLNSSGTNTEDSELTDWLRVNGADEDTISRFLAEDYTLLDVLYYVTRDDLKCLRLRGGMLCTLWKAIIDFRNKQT", "assay": "ASK1 kinase HTRF assay (HTRF KinEASE-STK, phosphorylation of biotinylated peptide substrate)", "assay_type": "biochemical", "details": "not given", "procedure": "(§1) Reagents: Recombinant human ASK1 kinase was from Invitrogen Inc. HTRF KinEASETM-STK S3 kit was obtained from Cisbio (Bedford, Mass.). All other reagents were of the highest grade commercially available.\n(§2) Assay: The assay measures the phosphorylation level of a biotinylatd peptide substrate by the ASK1 kinase using HTRF detection. ASK1 kinase assay is based on HTRF KinEASETM-STK manual from Cisbio. Test compound, 1 uM STK-substrate-biotin, 3 nM of ASK1 kinase are incubated with 1*Kinase buffer with 5 mM MgCl2 and 1 mM DTT.", "units": {"EC50": "nM"}}
{"smiles": "CC(C)n1cnnc1-c1cccc(NC(=O)Nc2ccccc2)n1", "note": "[Compound I-016]", "EC50": "50 to 500"}
{"smiles": "CC(C)n1cnnc1-c1cccc(NC(=O)Nc2ccccn2)n1", "note": "[Compound I-025]", "EC50": "< 50"}
{"smiles": "CC(C)n1cnnc1-c1cccc(NC(=O)Nc2cccnc2)n1", "note": "[Compound I-032]", "EC50": "50 to 500"}
{"smiles": "CC(C)n1cnnc1-c1cccc(NC(=O)Nc2ccncc2)n1", "note": "[Compound I-033]", "EC50": "50 to 500"}
{"biological_target": "T1, Recombinant human ASK1 kinase", "assay": "ASK1 kinase HTRF assay (HTRF KinEASE-STK, phosphorylation of biotinylated peptide substrate)", "assay_type": "biochemical", "details": "3 nM ASK1 kinase, 1 uM STK-substrate-biotin, HTRF detection; read-out: EC50", "procedure": "as §1, §2", "units": {"EC50": "nM"}}
{"smiles": "Cc1ccc(NC(=O)Nc2cccc(-c3nncn3C(C)C)n2)nc1", "note": "[Compound I-001, 1-(6-(4-Isopropyl-4H-1,2,4-triazol-3-yl)pyridin-2-yl)-3-(5-methylpyridin-2-yl) urea]", "EC50": "< 50"}
{"smiles": "C[C@H](CO)n1cnnc1-c1cccc(NC(=O)Nc2cc(-c3ccc(C4CC4)nc3)ccn2)n1", "note": "[Compound I-002, 3-[4-(6-Cyclopropylpyridin-3-yl)pyridin-2-yl]-1-(6-{4-[(2R)-1-hydroxypropan-2-yl]-4H-1,2,4-triazol-3-yl}pyridin-2-yl)urea]", "EC50": "< 50"}
{"smiles": "CC(n1cnnc1-c1cccc(NC(=O)Nc2ccccn2)n1)C(F)(F)F", "note": "(centres unmarked) [Compound I-003, 3-(Pyridin-2-yl)-1-[6-[4-(1,1,1-trifluoropropan-2-yl)-4H-1,2,4-triazol-3-yl]pyridin-2-yl]urea]", "EC50": "< 50"}
{"smiles": "CC(C)n1cnnc1-c1cccc(NC(=O)Nc2cc(NC(=O)c3ccccc3)ccn2)n1", "note": "[Compound I-004, N-(2-(3-(6-(4-Isopropyl-4H-1,2,4-triazol-3-yl)pyridin-2-yl)ureido)pyridin-4-yl)benzamide]", "EC50": "< 50"}
{"smiles": "CC(C)n1cnnc1-c1cccc(NC(=O)Nc2cc(N3CCN(C)CC3)ccn2)n1", "note": "[Compound I-005, 1-(6-(4-Isopropyl-4H-1,2,4-triazol-3-yl)pyridin-2-yl)-3-(4-(4-methylpiperazin-1-yl)pyridin-2-yl)urea]", "EC50": "< 50"}
{"smiles": "CC(C)n1cnnc1-c1cccc(NC(=O)Nc2cc(C(=O)N3CCc4ccccc4C3)ccn2)n1", "note": "[Compound I-006, 1-(6-(4-Isopropyl-4H-1,2,4-triazol-3-yl)pyridin-2-yl)-3-(4-(1,2,3,4-tetrahydroisoquinoline-2-carbonyl)pyridin-2-yl)urea]", "EC50": "< 50"}
{"smiles": "C[C@H](CO)n1cnnc1-c1cccc(NC(=O)Nc2cc(C(=O)N3CCC(C)(C)CC3)ccn2)n1", "note": "[Compound I-007, (R)-1-(4-(4,4-Dimethylpiperidine-1-carbonyl)pyridin-2-yl)-3-(6-(4-(1-hydroxypropan-2-yl)-4H-1,2,4-triazol-3-yl)pyridin-2-yl)urea]", "EC50": "< 50"}
{"smiles": "CC(C)(C)n1cnnc1-c1cccc(NC(=O)Nc2cc(C(=O)N3CCCCC3)ccn2)n1", "note": "[Compound I-008, 3-[6-(4-tert-Butyl-4H-1,2,4-triazol-3-yl)pyridin-2-yl]-1-[4-(piperidine-1-carbonyl)pyridin-2-yl]urea]", "EC50": "< 50"}
{"smiles": "CC(C)n1cnnc1-c1cccc(NC(=O)Nc2ccc(C(N)=O)cn2)n1", "note": "[Compound I-009, 6-(3-(6-(4-Isopropyl-4H-1,2,4-triazol-3-yl)pyridin-2-yl)ureido)nicotinamide]", "EC50": "< 50"}
{"smiles": "CC(=O)OC[C@@H](C)n1cnnc1-c1cccc(NC(=O)Nc2cc(C(=O)N3CCCCC3)ccn2)n1", "note": "[Compound I-012, (2R)-2-[3-[6-([[4-(Piperidine-1-carbonyl)pyridin-2-yl]carbamoyl]amino)pyridin-2-yl]-4H-1,2,4-triazol-4-yl]propyl acetate]", "EC50": "50 to 500"}
{"smiles": "CC(C)[C@H](N)C(=O)OC[C@@H](C)n1cnnc1-c1cccc(NC(=O)Nc2cc(C(=O)N3CCCCC3)ccn2)n1", "note": "[Compound I-013, (2R)-2-[3-[6-([[4-(Piperidine-1-carbonyl)pyridin-2-yl]carbamoyl]amino)pyridin-2-yl]-4H-1,2,4-triazol-4-yl]propyl (2S)-2-amino-3-methylbutanoate]", "EC50": "< 50"}
{"smiles": "CC(C)n1cnnc1-c1cccc(NC(=O)Nc2cc(S(=O)(=O)Nc3ccccc3)ccn2)n1", "note": "[Compound I-014, 1-[4-(Phenylsulfamoyl)pyridin-2-yl]-3-[6-[4-(propan-2-yl)-4H-1,2,4-triazol-3-yl]pyridin-2-yl]urea]", "EC50": "< 50"}
{"smiles": "CC(C)n1cnnc1-c1cccc(NC(=O)Nc2cc(NS(=O)(=O)c3ccccc3)ccn2)n1", "note": "[Compound I-015, 3-(4-Benzenesulfonamidopyridin-2-yl)-1-[6-[4-(propan-2-yl)-4H-1,2,4-triazol-3-yl]pyridin-2-yl]urea]", "EC50": "< 50"}
{"smiles": "Cc1ccc(NC(=O)Nc2cccc(-c3nncn3C(C)C)n2)cc1", "note": "[Compound I-017]", "EC50": "50 to 500"}
{"smiles": "Cc1ccc(NC(=O)Nc2cccc(-c3nncn3C(C)C)n2)c(F)c1", "note": "[Compound I-018]", "EC50": "50 to 500"}
{"smiles": "Cc1cc(F)c(NC(=O)Nc2cccc(-c3nncn3C(C)C)n2)cc1-n1cnc(C2CC2)c1", "note": "[Compound I-020]", "EC50": "500 to 5000"}
{"smiles": "C[C@H](CO)n1cnnc1-c1cccc(NC(=O)Nc2ccccn2)n1", "note": "[Compound I-026]", "EC50": "< 50"}
{"smiles": "C[C@@H](CO)n1cnnc1-c1cccc(NC(=O)Nc2ccccn2)n1", "note": "[Compound I-027]", "EC50": "50 to 500"}
{"smiles": "CCC(C)n1cnnc1-c1cccc(NC(=O)Nc2ccccn2)n1", "note": "(centres unmarked) [Compound I-028]", "EC50": "< 50"}
{"smiles": "CC(CN)n1cnnc1-c1cccc(NC(=O)Nc2ccccn2)n1", "note": "(centres unmarked) [Compound I-030]", "EC50": "50 to 500"}
{"smiles": "COCC(C)n1cnnc1-c1cccc(NC(=O)Nc2ccccn2)n1", "note": "(centres unmarked) [Compound I-031]", "EC50": "50 to 500"}
{"smiles": "Cc1ccc(NC(=O)Nc2cccc(-c3nncn3C3CC3)n2)nc1", "note": "[Compound I-034]", "EC50": "50 to 500"}
{"smiles": "Cc1ccc(NC(=O)Nc2cccc(-c3nncn3C(C)CO)n2)nc1", "note": "(centres unmarked) [Compound I-035]", "EC50": "< 50"}
{"smiles": "Cc1ccc(NC(=O)Nc2cccc(-c3nncn3[C@H](C)CO)n2)nc1", "note": "[Compound I-036]", "EC50": "< 50"}
{"smiles": "Cc1ccc(NC(=O)Nc2cccc(-c3nncn3[C@@H](C)CO)n2)nc1", "note": "[Compound I-037]", "EC50": "50 to 500"}
{"smiles": "Cc1ccnc(NC(=O)Nc2cccc(-c3nncn3C(C)C)n2)c1", "note": "[Compound I-038]", "EC50": "< 50"}
{"smiles": "Cc1cccnc1NC(=O)Nc1cccc(-c2nncn2C(C)C)n1", "note": "[Compound I-039]", "EC50": "< 50"}
{"smiles": "Cc1cccc(NC(=O)Nc2cccc(-c3nncn3C(C)C)n2)n1", "note": "[Compound I-040]", "EC50": "< 50"}
{"smiles": "Cc1ccc(NC(=O)Nc2cccc(-c3nncn3C(C)C)n2)cn1", "note": "[Compound I-041]", "EC50": "50 to 500"}
{"smiles": "CCc1ccnc(NC(=O)Nc2cccc(-c3nncn3C(C)C)n2)c1", "note": "[Compound I-042]", "EC50": "< 50"}
{"smiles": "Cc1cnc(NC(=O)Nc2cccc(-c3nncn3C(C)C)n2)cc1C", "note": "[Compound I-043]", "EC50": "< 50"}
{"smiles": "CC(C)c1ccc(NC(=O)Nc2cccc(-c3nncn3C(C)C)n2)nc1", "note": "[Compound I-044]", "EC50": "< 50"}
{"smiles": "CC(C)c1ccnc(NC(=O)Nc2cccc(-c3nncn3C(C)C)n2)c1", "note": "[Compound I-045]", "EC50": "< 50"}
{"smiles": "CC(C)n1cnnc1-c1cccc(NC(=O)Nc2ccc(C3CC3)cn2)n1", "note": "[Compound I-046]", "EC50": "< 50"}
{"smiles": "CC(C)n1cnnc1-c1cccc(NC(=O)Nc2cc(C3CC3)ccn2)n1", "note": "[Compound I-047]", "EC50": "< 50"}
{"smiles": "CC(C)n1cnnc1-c1cccc(NC(=O)Nc2cc(C3CCCC3)ccn2)n1", "note": "[Compound I-048]", "EC50": "< 50"}
{"smiles": "CC(C)n1cnnc1-c1cccc(NC(=O)Nc2cc(C3CCCCC3)ccn2)n1", "note": "[Compound I-049]", "EC50": "< 50"}
{"smiles": "CC(C)n1cnnc1-c1cccc(NC(=O)Nc2cc(C3CCNCC3)ccn2)n1", "note": "[Compound I-050]", "EC50": "< 50"}
{"smiles": "COc1ccc(NC(=O)Nc2cccc(-c3nncn3C(C)C)n2)nc1", "note": "[Compound I-051]", "EC50": "< 50"}
{"smiles": "COc1ccnc(NC(=O)Nc2cccc(-c3nncn3C(C)C)n2)c1", "note": "[Compound I-052]", "EC50": "< 50"}
{"smiles": "COc1ccnc(NC(=O)Nc2cccc(-c3nncn3[C@H](C)CO)n2)c1", "note": "[Compound I-053]", "EC50": "< 50"}
{"smiles": "COc1ccnc(NC(=O)Nc2cccc(-c3nncn3[C@@H](C)CO)n2)c1", "note": "[Compound I-054]", "EC50": "50 to 500"}
{"smiles": "COc1cccnc1NC(=O)Nc1cccc(-c2nncn2C(C)C)n1", "note": "[Compound I-055]", "EC50": "< 50"}
